Results published in ChEMBL document CHEMBL1201862, “PubChem BioAssay data set” (2004).
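Values below derive from 48-hour exposures of cells grown in 96-well plates, with endpoints linearly interpolated between the two concentrations bracketing the appropriate inhibition level. Abbreviation: GI50, concentration required for 50% inhibition of growth.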 The source made the active and inactive calls. Rule as the data show it: active = GI50 up to about 1.1 µM and inactive = higher.

How the values were obtained:
Assay in all cases: DTP human tumour cell line panel, 48 h
[1] = tested on: PC-3
[2] = tested on: ACHN
[3] = tested on: CAKI-1
[4] = tested on: DU-145
[5] = tested on: SNB-19
[6] = tested on: SNB-75
[7] = tested on: MDA-MB-435
[8] = tested on: SK-OV-3
[9] = tested on: SK-MEL-28
[10] = tested on: UACC-62
[11] = tested on: NCI-H23
[12] = tested on: BT-549
[13] = tested on: MDA-N
[14] = tested on: SF-268
[15] = tested on: NCI/ADR-RES
[16] = tested on: UO-31
[17] = tested on: OVCAR-4
[18] = tested on: OVCAR-8
[19] = tested on: K562
[20] = tested on: TK-10
[21] = tested on: Malme-3M
[22] = tested on: MDA-MB-231
[23] = tested on: SK-MEL-2
[24] = tested on: A498
[25] = tested on: RXF 393
[26] = tested on: SN12C
[27] = tested on: MCF7
[28] = tested on: HOP-62
[29] = tested on: M14
[30] = tested on: HL-60
[31] = tested on: SF-295
[32] = tested on: Hs-578T
[33] = tested on: OVCAR-5
[34] = tested on: HCC 2998
[35] = tested on: SK-MEL-5
[36] = tested on: SW-620
[37] = tested on: NCI-H460
[38] = tested on: SF-539
[39] = tested on: IGROV-1
[40] = tested on: HT-29
[41] = tested on: LOX IMVI
[42] = tested on: A549
[43] = tested on: HCT-15
[44] = tested on: KM12
[45] = tested on: NCI-H226
[46] = tested on: T47D
[47] = tested on: EKVX
[48] = tested on: NCI-H522
[49] = tested on: RPMI-8226
[50] = tested on: OVCAR-3
[51] = tested on: HOP-92
[52] = tested on: COLO 205
[53] = tested on: HCT-116
[54] = tested on: UACC-257
[55] = tested on: CCRF-CEM
[56] = tested on: U-251
[57] = tested on: MOLT-4
[58] = tested on: SR
[59] = tested on: 786-0

COC(=O)C1=C(OC(=O)/C=C/c2ccccc2)C(C(=O)OC)[C@@]2(O)[C@@H](C(=O)OC)[C@H](C)C[C@@H]1[C@@H]2C(=O)OC (some centres undefined) was tested, and the GI50 [1] was 25.5 µM (inactive), the GI50 [2] was 22.8 µM (inactive) and the GI50 [3] was 15.7 µM (inactive). The GI50 [4] was 18 µM (inactive), the GI50 [5] was 26.2 µM (inactive) and the GI50 [6] was 19.4 µM (inactive). For the same compound, the GI50 [7] was 15.6 µM (inactive), the GI50 [8] was 21.4 µM (inactive) and the GI50 [9] was 28.8 µM (inactive). The GI50 [10] was 12.6 µM (inactive), the GI50 [11] was 17.3 µM (inactive) and the GI50 [12] was 15.4 µM (inactive). The GI50 [13] was 19.7 µM (inactive), the GI50 [14] was 24.2 µM (inactive) and the GI50 [15] was 16.7 µM (inactive). For the same compound, the GI50 [16] was 17 µM (inactive), the GI50 [17] was 18.2 µM (inactive) and the GI50 [18] was 14.2 µM (inactive). The GI50 [19] was > 100 µM (inactive), the GI50 [20] was 34.4 µM (inactive) and the GI50 [21] was 15.8 µM (inactive). The GI50 [22] was 14.8 µM (inactive), the GI50 [23] was 24.9 µM (inactive) and the GI50 [24] was 13.3 µM (inactive). For the same compound, the GI50 [25] was 4.05 µM (inactive), the GI50 [26] was 13.9 µM (inactive) and the GI50 [27] was 19.3 µM (inactive). The GI50 [28] was 19 µM (inactive), the GI50 [29] was 25.5 µM (inactive) and the GI50 [30] was 39.2 µM (inactive). The GI50 [31] was 19.9 µM (inactive), the GI50 [32] was 14.7 µM (inactive) and the GI50 [33] was 11.7 µM (inactive). For the same compound, the GI50 [34] was 19.4 µM (inactive), the GI50 [35] was 26.9 µM (inactive) and the GI50 [36] was 28.3 µM (inactive). For the same compound, the GI50 [37] was 17 µM (inactive), the GI50 [38] was 19.8 µM (inactive) and the GI50 [39] was 25 µM (inactive). The GI50 [40] was 24.7 µM (inactive), the GI50 [41] was 22.1 µM (inactive) and the GI50 [42] was 15.3 µM (inactive). For the same compound, the GI50 [43] was 11.7 µM, the GI50 [44] was 27.9 µM (inactive) and the GI50 [45] was 41.1 µM (inactive). For the same compound, the GI50 [46] was 24.5 µM (inactive), the GI50 [47] was 15.5 µM (inactive) and the GI50 [48] was 5.58 µM (inactive). The GI50 [49] was 8.47 µM (inactive), the GI50 [50] was 19.9 µM (inactive) and the GI50 [51] was 20.4 µM (inactive). The GI50 [52] was 28.8 µM (inactive), the GI50 [53] was 24.1 µM (inactive) and the GI50 [54] was 20.1 µM (inactive). For the same compound, the GI50 [55] was 56.5 µM (inactive), the GI50 [56] was 18.8 µM (inactive) and the GI50 [57] was > 100 µM (inactive). The GI50 [58] was > 100 µM (inactive) and the GI50 [59] was 17.1 µM (inactive).
